{
  "source": "patent US12577219B2",
  "about": "“Macrolide brefeldin a ester derivatives and use thereof” (OCEAN UNIVERSITY OF CHINA, priority 2019, dated 2026)",
  "key": {"[1]": {"system": "human liver cancer HepG2 cells", "experiment": "Cell proliferation assay (CCK-8)", "assay_type": "cell-based", "conditions": "HepG2, 72 h", "excerpt": "(§1) CCK-8 method: The CCK-8 method is a highly sensitive, non-radioactive colorimetric assay for the determination of the number of viable cells in cell proliferation or cytotoxicity assays. The orange formazan dye produced by the bioreduction of CCK-8 by intracellular dehydrogenase is soluble in the cell culture medium, and the amount of formazan dye produced is proportional to the number of living cells. The kit used in this method is the tetrazolium salt-WST-8 (2-(2-methoxy-4-nitrophenyl)-3-(4-nitrophenyl)-5-(2,4-disulfophenyl)-2H-tetrazolium monosodium salt) developed by Dojindo Chemical Research Institute (Dojindo), which is capable of being reduced to a water-soluble formazan dye in the presence of the electronic carrier 1-Methoxy PMS.\n(§2) Human cervical cancer Hela cells, pancreatic cancer PANC-1cells, esophageal cancer Eca-109 cells, human leukemia K562 cells, human lung cancer A549 cells, human liver cancer HepG2 cells, human gastric cancer MKN-45 cells, human breast cancer MCF7 cells were cultured in DMEM medium containing 10% FBS (fetal bovine serum), 100 U/mL penicillin and 100 μg/ml streptomycin. Hepatocellular carcinoma cells Bel-7402 were cultured in RPMI-1640 medium containing 10% FBS (fetal bovine serum), 100 U/ml penicillin and 100 μg/ml streptomycin. All cells were placed in a cell culture incubator at 37° C. with 5% CO2. Cells fluid was changed every 3-5 days, and after 80% cell fusion, trypsin digestion and passaging were performed to keep the cells in good logarithmic growth phase.\n(§3) All the samples to be tested were dissolved in DMSO.\n(§4) Cells in logarithmic growth phase were inoculated in 96-well plates with 5000 cells/well respectively, and after 24 h of incubation, samples were added (final concentrations as shown in the table), and biplicate wells were set up for each sample. The amount of solvent of DMSO was not higher than 2%. After 72 h, 10 μL of CCK-8 solution was added to each well and incubated for 1.5˜3 h at 37° C. The OD value at 450 nm was measured on an plate reader. Inhibition rate (%)=(1−[(OD450 dosed well−OD450 blank well)/(OD450 control well−OD450 blank well)])×100%\n(§5) The fitted IC50 values were calculated using the log (inhibitor) vs. response—Variable slop analysis method in GraphPad Prism software."}, "[2]": {"system": "human gastric cancer MKN-45 cells", "experiment": "Cell proliferation assay (CCK-8)", "assay_type": "cell-based", "conditions": "MKN-45, 72 h", "excerpt": "as §1, §2, §3, §4, §5"}, "[3]": {"system": "human leukemia K562 cells", "experiment": "Cell proliferation assay (CCK-8)", "assay_type": "cell-based", "conditions": "K562, 72 h", "excerpt": "as §1, §2, §3, §4, §5"}, "[4]": {"system": "human breast cancer MCF7 cells", "experiment": "Cell proliferation assay (CCK-8)", "assay_type": "cell-based", "conditions": "MCF7, 72 h", "excerpt": "as §1, §2, §3, §4, §5"}, "[5]": {"system": "human lung cancer A549 cells", "experiment": "Cell proliferation assay (CCK-8)", "assay_type": "cell-based", "conditions": "A549, 72 h", "excerpt": "as §1, §2, §3, §4, §5"}, "[6]": {"system": "Human cervical cancer Hela cells", "experiment": "Cell proliferation assay (CCK-8)", "assay_type": "cell-based", "conditions": "72 h", "excerpt": "as §1, §2, §3, §4, §5"}, "[7]": {"system": "pancreatic cancer PANC-1cells", "experiment": "Cell proliferation assay (CCK-8)", "assay_type": "cell-based, human", "conditions": "PANC-1, 72 h", "excerpt": "as §1, §2, §3, §4, §5"}, "[8]": {"system": "esophageal cancer Eca-109 cells", "experiment": "Cell proliferation assay (CCK-8)", "assay_type": "cell-based, human", "conditions": "Eca-109, 72 h", "excerpt": "as §1, §2, §3, §4, §5"}, "[9]": {"experiment": "Solubility test (shaker 37° C., 24 h, HPLC)", "conditions": "37° C., 24 h, x ± s, n = 3", "experimental": "The term “solubility” refers to the mass of solute dissolved when a solid substance reaches saturation state in 100 g solvent at a certain temperature.\nMethods: Excess BFA and the compounds disclosed herein were added to 10 mL of three solvents, methanol, acetone and 5% DMSO+95% H2O, respectively, and shaken on a shaker at 37° C. at 100 r/min for 24 h. After 24 h, the samples were centrifuged at 15,000 r/min for 15 min to remove the undissolved compounds. The supernatant was filtered using a 0.45 μm membrane filter. The supernatant was appropriately diluted with methanol and contents of the compounds were determined by HPLC method to calculate the solubility."}, "Kunming breed mice": {"system": "Kunming breed mice", "experiment": "Toxicity test after intraperitoneal administration to mice", "assay_type": "in vivo", "conditions": "ip.; for Organ abnormality at anatomy: anatomy on the 14 th day; for Mental condition of the animals after administration: high and low doses; for Deaths after administration: high and low doses (BFA effective amount conversion), 14 d", "protocol": "Objective: Observation of toxic effects of compounds after intraperitoneally administration (ip.) to mice\n1) Agents: Compounds disclosed herein were formulated to a suitable concentration.\n2) Animals: Kunming breed mice, weight 18-22 g, male. Provided by Jinan Pengyue Laboratory Animal Breeding Co., Ltd. Animal license number: SCXK (Shandong 20140007)\nMethod: Kunming breed mice, were randomly grouped by weight, 6 mice per group, namely normal control group, BFA high and low dose groups (100 mg/kg and 50 mg/kg, respectively), and high and low dose groups of some compounds disclosed herein (BFA effective amount conversion). […] After 14 d of continuous administration, all the animals were weighed, and the animals were executed to observe whether there were any abnormalities in the organs."}},
  "data": [
    {"smiles": "COc1cccc2c1C(=O)c1c(O)c3c(c(O)c1C2=O)C[C@@](O)(C(=O)CO)C[C@@H]3O[C@H]1C[C@H](N)[C@H](O)[C@H](C)O1", "note": "[Adriamycin]", "values": [
      {"measurement": "IC50", "setting": "[1]; Homo sapiens", "value": "> 10000", "unit": "nM"},
      {"measurement": "IC50", "setting": "[2]; Homo sapiens", "value": "100 to 1000", "unit": "nM"},
      {"measurement": "IC50", "setting": "[3]; Homo sapiens", "value": "1000 to 10000", "unit": "nM"},
      {"measurement": "IC50", "setting": "[4]; Homo sapiens", "value": "1000 to 10000", "unit": "nM"},
      {"measurement": "IC50", "setting": "[5]; Homo sapiens", "value": "100 to 1000", "unit": "nM"},
      {"measurement": "IC50", "setting": "[6]; Homo sapiens", "value": "100 to 1000", "unit": "nM"},
      {"measurement": "IC50", "setting": "[7]; Homo sapiens", "value": "< 100", "unit": "nM"},
      {"measurement": "IC50", "setting": "[8]; Homo sapiens", "value": "100 to 1000", "unit": "nM"}
    ]},
    {"smiles": "C[C@H]1CCC/C=C/[C@@H]2C[C@H](O)C[C@H]2[C@H](O)/C=C/C(=O)O1", "note": "[BFA, Brefeldin A]", "values": [
      {"measurement": "IC50", "setting": "[1]", "value": "100 to 1000", "unit": "nM"},
      {"measurement": "IC50", "setting": "[2]", "value": "100 to 1000", "unit": "nM"},
      {"measurement": "IC50", "setting": "[3]", "value": "100 to 1000", "unit": "nM"},
      {"measurement": "IC50", "setting": "[4]", "value": "< 100", "unit": "nM"},
      {"measurement": "IC50", "setting": "[5]", "value": "100 to 1000", "unit": "nM"},
      {"measurement": "IC50", "setting": "[6]", "value": "100 to 1000", "unit": "nM"},
      {"measurement": "Solubility, 5% DMSO + 95% H2O", "setting": "[9]; 5% DMSO + 95% H2O", "value": "85 ± 30", "unit": "µg/mL"},
      {"measurement": "Solubility, Acetone", "setting": "[9]; acetone", "value": "3130 ± 1240", "unit": "µg/mL"},
      {"measurement": "Solubility, Methanol", "setting": "[9]; methanol", "value": "3130 ± 1240", "unit": "µg/mL"},
      {"measurement": "IC50", "setting": "[7]", "value": "< 100", "unit": "nM"},
      {"measurement": "IC50", "setting": "[8]", "value": "100 to 1000", "unit": "nM"}
    ]},
    {"smiles": "C[C@H]1CCC/C=C/[C@@H]2C[C@H](OC(=O)/C=C/c3cccc(F)c3)C[C@H]2[C@H](O)/C=C/C(=O)O1", "note": "[Compound 1a, 7-O-(3-fluorocinnamic acid)acyl BFA]", "values": [
      {"measurement": "Organ abnormality at anatomy", "setting": "Kunming breed mice", "value": "no significant abnormality in all organs"},
      {"measurement": "Mental condition of the animals after administration", "setting": "Kunming breed mice", "value": "good mental condition"},
      {"measurement": "Deaths after administration", "setting": "Kunming breed mice", "value": "no deaths"}
    ]},
    {"smiles": "C[C@H]1CCC/C=C/[C@@H]2C[C@H](O)C[C@H]2[C@H](OC(=O)/C=C/c2cccc(F)c2)/C=C/C(=O)O1", "note": "[Compound 1b, 4-O-(3-fluorocinnamic acid)acyl BFA]", "values": [
      {"measurement": "Organ abnormality at anatomy", "setting": "Kunming breed mice", "value": "no significant abnormality in all organs"},
      {"measurement": "Mental condition of the animals after administration", "setting": "Kunming breed mice", "value": "good mental condition"},
      {"measurement": "Deaths after administration", "setting": "Kunming breed mice", "value": "no deaths"}
    ]},
    {"smiles": "C[C@H]1CCC/C=C/[C@@H]2C[C@H](OC(=O)/C=C/c3cccc(F)c3)C[C@H]2[C@H](OC(=O)/C=C/c2cccc(F)c2)/C=C/C(=O)O1", "note": "[Compound 1c, 4,7-O-bis(3-fluorocinnamic acid)acyl BFA]", "values": [
      {"measurement": "Organ abnormality at anatomy", "setting": "Kunming breed mice", "value": "no significant abnormality in all organs"},
      {"measurement": "Mental condition of the animals after administration", "setting": "Kunming breed mice", "value": "good mental condition"},
      {"measurement": "Deaths after administration", "setting": "Kunming breed mice", "value": "no deaths"}
    ]},
    {"smiles": "C[C@H]1CCC/C=C/[C@@H]2C[C@H](O)C[C@H]2[C@H](OC(=O)/C=C/c2ccc3c(c2)OCO3)/C=C/C(=O)O1", "note": "[Compound 9b, 4-O-((E)-3-(benzo[d][1,3]dioxa-5-yl)acrylic acid)acyl BFA]", "values": [
      {"measurement": "IC50", "setting": "[1]", "value": "1000 to 10000", "unit": "nM"},
      {"measurement": "IC50", "setting": "[2]", "value": "100 to 1000", "unit": "nM"},
      {"measurement": "IC50", "setting": "[3]", "value": "100 to 1000", "unit": "nM"},
      {"measurement": "IC50", "setting": "[4]", "value": "100 to 1000", "unit": "nM"},
      {"measurement": "IC50", "setting": "[5]", "value": "100 to 1000", "unit": "nM"},
      {"measurement": "IC50", "setting": "[6]", "value": "1000 to 10000", "unit": "nM"},
      {"measurement": "IC50", "setting": "[7]", "value": "100 to 1000", "unit": "nM"},
      {"measurement": "IC50", "setting": "[8]", "value": "1000 to 10000", "unit": "nM"}
    ]},
    {"smiles": "C[C@H]1CCC/C=C/[C@@H]2C[C@H](OC(=O)/C=C/c3ccc(N(C)C)cc3)C[C@H]2[C@H](O)/C=C/C(=O)O1", "note": "[Compound 10a, 7-O-(4-dimethylaminocinnamic acid)acyl BFA]", "values": [
      {"measurement": "Organ abnormality at anatomy", "setting": "Kunming breed mice", "value": "no significant abnormality in all organs"},
      {"measurement": "Mental condition of the animals after administration", "setting": "Kunming breed mice", "value": "good mental condition"},
      {"measurement": "Deaths after administration", "setting": "Kunming breed mice", "value": "no deaths"}
    ]},
    {"smiles": "C[C@H]1CCC/C=C/[C@@H]2C[C@H](O)C[C@H]2[C@H](OC(=O)/C=C/c2ccc(N(C)C)cc2)/C=C/C(=O)O1", "note": "[Compound 10b, 4-O-(4-dimethylaminocinnamic acid)acyl BFA]", "values": [
      {"measurement": "Organ abnormality at anatomy", "setting": "Kunming breed mice", "value": "no significant abnormality in all organs"},
      {"measurement": "Mental condition of the animals after administration", "setting": "Kunming breed mice", "value": "good mental condition"},
      {"measurement": "Deaths after administration", "setting": "Kunming breed mice", "value": "no deaths"}
    ]}
  ]
}
